Columns and labels:
[1] = target: T1, human recombinant I-domain (rI-domain) of CD11b (Homo sapiens, UniProt P11215); assay: Surface plasmon resonance binding to human rI-domain (KD); settings: SPR, single cycle kinetics, 25° C., PBS; read-out: KD
T1 construct: made in house

[2] = target: T2, N. gonorrhoeae MS11 pilin interaction with human rI-domain (Homo sapiens, UniProt P11215); assay: SPR 1:1 competition assay, MS11 pilin binding to rI-domain
T2 construct: was performed with human rI-domain immobilized on a CM5 sensor chip surface; made in house
Experimental: To determine if drugs with high affinity interactions with the human rI-domain could inhibit the interaction with MS11 pilin or HIV, competition assay between primary T-cell derived WITO HIV and N. gonorrhoeae MS11 pilin and the drugs were performed as described Mubaiwa et al (2017, Sci Rep. 7(1):5693). Competition analysis SPR of N. gonorrhoeae MS11 pilin and human rI-domain interaction was performed with human rI-domain immobilized on a CM5 sensor chip surface (low immobilization—˜3500 RU compared to ˜14000 RU for initial screening and KD calculations). N. gonorrhoeae MS11 purified pilin, drug or drug and pilin were flowed at 100 nM over the I-domain and the response units of the interactions were recorded.

[3] = system: primary T-cell derived WITO HIV interaction with human rI-domain; assay: SPR 1:1 competition assay, WITO HIV binding to rI-domain; settings: for % inhibition: 1:1 competition, 1 μM, 1 µM
Experimental: For competition analysis SPR of the HIV interaction with human rI-domain, primary T-cell derived WITO HIV was immobilized on a Cl sensor chip surface. Human rI-domain, drug or drug and human rI-domain were flowed at 1 μM over the immobilized HIV and the response units of the interactions were recorded. Any drug that could not compete with the virus or pilin binding to the rI-domain was also discarded. Remaining drugs were evaluated for known safety in humans and known therapeutic concentrations to determine if the drug would be tested, and at what concentrations, in in vitro cell models. All SPR sensorgrams and results plots were analyzed with Biacore S200 Evaluation Software (GE Healthcare Life Sciences).

[4] = system: HIV strains NL4-3 and NLAD8 adherence to human PEX cells; assay: Fluorometric adherence assay, HIV to PEX cells; type: cell-based; settings: for decrease of cell association to PEX cells: 100 μM; for reduction in cell adherence to PEX cells: lowest concentration, printed 'down to 100 μM'
Experimental: The ability of carbamazepine to block adherence of HIV to human PEX cells was evaluated using a fluorometric adherence assay, essentially as described by Jen et al. (2013, supra). In this regard, PEX cells were seeded to a 96-well plate and allowed to grow to confluence. Fluorescently labelled HIV (10 ng of p24 HIV capsid protein equivalent of HIV in 100 μL of F12 culture media) were then used to challenge (2 h) PEX cells simultaneously with, or without, various concentrations of carbamazepine (as noted). Fluorescence (485/528 nm) intensity, corresponding to HIV cell adherence, was recorded using a Synergy HT Multi-mode Microplate Reader (BioTek Instruments, Winooski, VT USA). The assay was performed in triplicate on 3 separate occasions. A Kruskal-Wallis k-sample analysis of variance was used to determine the statistical significance of the calculated mean of viral-cell adherence.

N. gonorrhoeae strains = assay: Well diffusion assay in the absence of human cells; parameters: species or system Neisseria gonorrhoeae; settings: GC-agar, overnight 37° C.; 100 μM to 100 μM [sic]
Experimental: (§1) FIG. 22 is a graphical representation showing the effect of carbamazepine on N. gonorrhoeae in the absence of human cells. Well diffusion assays were performed in which N. gonorrhoeae strains were spread uniformly across the surface of GC-agar plates at a culture density of 10^7 bacterial per mL. Wells were then punctured within the agar surface to which carbamazepine (Cz; […], as noted), 0.2 μg/mL ceftriaxone (Cfx), 10 μg/mL ciprofloxacin (Cip), or 1% DMSO (vehicle control) were added. […] For agar plates in which a ZOI was not visible, data were recorded as the diameter of the well (6 mm), as indicated. Assays were performed in triplicate on 3 separate occasions. Data are presented as the mean and variance of the average values obtained for each assay; statistical significance was determined using a Student's t-test. […] This is consistent with a CR3-dependent, host-mediated mechanism of killing.
as §1, with “23” for “22”, “methyldopa” for “carbamazepine”, “methyldopa (Md;” for “carbamazepine (Cz;”
FIG. 24 is a graphical representation showing the effect of flufenamic acid on N. gonorrhoeae in the absence of human cells. Well diffusion assays were performed in which N. gonorrhoeae strains were spread uniformly across the surface of GC-agar plates at a culture density of 10^7 bacterial per mL. Wells were then punctured within the agar surface to which flufenamic acid ([…], as noted), 0.2 μg/mL ceftriaxone, 10 μg/mL ciprofloxacin, or 1% DMSO (vehicle control) were added. […] For agar plates in which a ZOI was not visible, data were recorded as the diameter of the well (6 mm), as indicated. Assays were performed in triplicate on 3 separate occasions. Data are presented as the mean and variance of the average values obtained for each assay; statistical significance was determined using a Student's t-test.

T2 sequence (P11215 150-328): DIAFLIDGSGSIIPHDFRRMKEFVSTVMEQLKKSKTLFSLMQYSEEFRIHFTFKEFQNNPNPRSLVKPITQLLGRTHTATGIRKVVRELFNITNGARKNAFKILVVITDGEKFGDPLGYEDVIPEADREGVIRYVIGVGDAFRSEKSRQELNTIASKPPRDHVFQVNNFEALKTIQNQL
T1 sequence (P11215 150-328 limits assumed): as the sequence (P11215 150-328) above

## NC(=O)N1c2ccccc2C=Cc2ccccc21 [carbamazepine, 5H-dibenzo[b,f]azepine-5-carboxamide]
[1]
  Kd: 2.12 nM
[2]; 1:1 competition, 100 nM
  inhibition at 0.1 µM: ~99%
[2]; 1:1 competition, 100 nM, 0.1 µM
  % inhibition: 98.97%
[2]; direct competition SPR
  Block MS11 pilin in SPR: Yes
[2]; drug alone flowed at 100 nM over immobilized rI-domain
  Drug RU: 4.358 RU
[2]; drug and pilin flowed at 100 nM, 1:1
  Pilin + Drug RU: 4.675 RU
[3]; listed as CARBAMAZEPINE
  % inhibition: 97.09%
[3]; listed as Carbamazepine
  % inhibition: ~97%
[3]; direct competition SPR
  Block HIV in SPR: Yes
[3]; drug alone flowed at 1 μM over immobilized WITO HIV
  Drug RU: 0.227 RU
[3]; drug and human rI-domain flowed at 1 μM, 1:1
  Pilin + Drug RU: 1.772 RU
[4]; NL4-3, 2 h
  decrease of cell association to PEX cells: 88.53%±0.37
[4]; NL4-3
  reduction in cell adherence to PEX cells: 59.65%±0.41
[4]; NL4-3 and NLAD8, 2 h
  HIV adherence to PEX cells with increasing concentrations: dose-dependent decrease
[4]; NLAD8, 2 h
  decrease of cell association to PEX cells: 87.98%±0.48
[4]; NLAD8
  reduction in cell adherence to PEX cells: 59.65%±0.24
N. gonorrhoeae strains
  effect on N. gonorrhoeae in the absence of human cells (zone of inhibition): no effect
